{"source": "patent US20230057984A1", "about": "“NORMALIZATION OF CULTURE OF CORNEAL ENDOTHELIAL CELLS” (KYOTO PREFECTURAL PUBLIC UNIVERSITY CORPORATION, priority 2011, published 2023)", "system": "Cynomolgus monkey corneal endothelial cells", "assay": "Culture of monkey corneal endothelial cells with SB431542, cell form by phase-contrast microscope (Example 2)", "format": "cell-based", "conditions": "primate CEC primary culture, base culture medium with 1 μmol/l SB431542; control showed fibroblast phenotype", "description": "• Cynomolgus monkey corneal endothelial cells (MCEC; source of supply and culturing method): the MCECs were cultured by the improved-type protocol described previously [Koizumi N, et al. (2007) Invest Ophthalmol Vis Sci 48: 4519-4526], [Li W, et al. (2007) Invest Ophthalmol Vis Sci 48: 614-620]. Briefly speaking, eyeballs of cynomolgus monkeys, which were humanely killed for another purpose, were purchased (Nissei Bilis Co., Ltd., Ohtsu, Japan and Keari Co., Ltd., Wakayama, Japan) (the method is described above). The Descemet's membrane including corneal endothelial cells were exfoliated, and the corneal endothelial cells were mechanically exfoliated together with basement membranes, followed by treatment using dispase or collagenase (ROCHE catalog number: 10 103 586 001) and then primary culture. Typically, treatment was performed using 1 mg/mL collagenase A (Roche Applied Science, Penzberg, Germany) at 37° C. for 2 hours. For the culture medium, DMEM (INVITROGEN catalog number 12320) was used with 10% FBS (BIOWEST, catalog number: S1820-500) and 2 ng/ml basic FGF (INVITROGEN, catalog number: 13256-029) added thereto. […] In addition, after the cells were fixed, immunostaining was performed using ZO-1, Na^+/K^+-ATPase as a function-associated marker, followed by observation through a fluorescence microscope. […]"}
{"smiles": "NC(=O)c1ccc(-c2nc(-c3ccc4c(c3)OCO4)c(-c3ccccn3)[nH]2)cc1", "note": "[SB431542]", "values": [{"measurement": "cell form in phase difference images", "value": "a true shape of a polygonal cell and a single layer of a contact inhibition type"}]}
